From ChEMBL document CHEMBL2440076, “New triarylpyrazoles as broad-spectrum anticancer agents: design, synthesis, and biological evaluation” (Eur J Med Chem, 2013)

Legend:
Type in all cases: functional
NCI-H460 [1] = assay: Growth inhibition of human NCI-H460 cells assessed as cell growth at 5X10'-6 M after 48 hrs by sulforhodamine B assay; settings: NCI-H460, 48 h, read-out: Activity
OVCAR-5 = assay: Growth inhibition of human OVCAR5 cells assessed as cell growth at 5X10'-8 M after 48 hrs by sulforhodamine B assay; settings: OVCAR-5, 48 h, read-out: Activity
T47D = assay: Growth inhibition of human T47D cells assessed as cell growth at 5X10'-5 M after 48 hrs by sulforhodamine B assay; settings: read-out: Activity
786-0 = assay: Growth inhibition of human 786-0 cells assessed as cell growth at 5X10'-9 M after 48 hrs by sulforhodamine B assay; settings: 786-0, 48 h, read-out: Activity
MDA-MB-231 [2] = assay: Growth inhibition of human MDA-MB-231 cells assessed as cell growth at 5X10'-6 M after 48 hrs by sulforhodamine B assay; settings: MDA-MB-231, 48 h, read-out: Activity
MDA-MB-231 [3] = assay: Growth inhibition of human MDA-MB-231 cells assessed as cell growth at 5X10'-5 M after 48 hrs by sulforhodamine B assay; settings: MDA-MB-231, 48 h, read-out: Activity
UO-31 = assay: Growth inhibition of human UO31 cells assessed as cell growth at 5X10'-9 M after 48 hrs by sulforhodamine B assay; settings: UO-31, 48 h, read-out: Activity
A549 [4] = assay: Growth inhibition of human A549/ATCC cells assessed as cell growth at 5X10'-7 M after 48 hrs by sulforhodamine B assay; settings: A549, 48 h, read-out: Activity
A549 [5] = assay: Growth inhibition of human A549/ATCC cells assessed as cell growth at 5X10'-8 M after 48 hrs by sulforhodamine B assay; settings: A549, 48 h, read-out: Activity
RXF 393 = assay: Growth inhibition of human RXF393 cells assessed as cell growth at 5X10'-7 M after 48 hrs by sulforhodamine B assay; settings: RXF 393, 48 h, read-out: Activity
MDA-MB-435 = assay: Growth inhibition of human MDA-MB-435 cells assessed as cell growth at 5X10'-8 M after 48 hrs by sulforhodamine B assay; settings: MDA-MB-435, 48 h, read-out: Activity
SF-295 = assay: Growth inhibition of human SF295 cells assessed as cell growth at 5X10'-8 M after 48 hrs by sulforhodamine B assay; settings: SF-295, 48 h, read-out: Activity
MDA-MB-468 [6] = assay: Growth inhibition of human MDA-MB-468 cells assessed as cell growth at 5X10'-8 M after 48 hrs by sulforhodamine B assay; settings: MDA-MB-468, 48 h, read-out: Activity
IGROV-1 = assay: Growth inhibition of human IGROV1 cells assessed as cell growth at 5X10'-8 M after 48 hrs by sulforhodamine B assay; settings: IGROV-1, 48 h, read-out: Activity
SK-MEL-28 = assay: Growth inhibition of human SK-MEL-28 cells assessed as cell growth at 5X10'-9 M after 48 hrs by sulforhodamine B assay; settings: SK-MEL-28, 48 h, read-out: Activity
RPMI-8226 [7] = assay: Growth inhibition of human RPMI8226 cells assessed as cell growth at 5X10'-5 M after 48 hrs by sulforhodamine B assay; settings: RPMI-8226, 48 h, read-out: Activity
[8] = Growth inhibition of human NCI-ADR-RES cells assessed as cell growth at 5X10'-8 M after 48 hrs by sulforhodamine B assay; settings: read-out: Activity
HCT-15 = assay: Growth inhibition of human HCT15 cells assessed as cell growth at 5X10'-7 M after 48 hrs by sulforhodamine B assay; settings: HCT-15, 48 h, read-out: Activity
U-251 = assay: Growth inhibition of human U251 cells assessed as cell growth at 5X10'-7 M after 48 hrs by sulforhodamine B assay; settings: U-251, 48 h, read-out: Activity
SN12C [9] = assay: Growth inhibition of human SN12C cells assessed as cell growth at 5X10'-8 M after 48 hrs by sulforhodamine B assay; settings: read-out: Activity
SW-620 [10] = assay: Growth inhibition of human SW620 cells assessed as cell growth at 5X10'-7 M after 48 hrs by sulforhodamine B assay; settings: SW-620, 48 h, read-out: Activity
RPMI-8226 [11] = assay: Growth inhibition of human RPMI8226 cells assessed as cell growth at 5X10'-7 M after 48 hrs by sulforhodamine B assay; settings: RPMI-8226, 48 h, read-out: Activity
SW-620 [12] = assay: Growth inhibition of human SW620 cells assessed as cell growth at 5X10'-8 M after 48 hrs by sulforhodamine B assay; settings: SW-620, 48 h, read-out: Activity
PC-3 = assay: Growth inhibition of human PC3 cells assessed as cell growth at 5X10'-6 M after 48 hrs by sulforhodamine B assay; settings: PC-3, 48 h, read-out: Activity
OVCAR-4 = assay: Growth inhibition of human OVCAR4 cells assessed as cell growth at 5X10'-9 M after 48 hrs by sulforhodamine B assay; settings: OVCAR-4, 48 h, read-out: Activity
SK-OV-3 = assay: Growth inhibition of human SKOV3 cells assessed as cell growth at 5X10'-6 M after 48 hrs by sulforhodamine B assay; settings: SK-OV-3, 48 h, read-out: Activity
CCRF-CEM = assay: Growth inhibition of human CCRF-CEM cells assessed as cell growth at 5X10'-6 M after 48 hrs by sulforhodamine B assay; settings: read-out: Activity
MDA-MB-468 [13] = assay: Growth inhibition of human MDA-MB-468 cells assessed as cell growth at 5X10'-9 M after 48 hrs by sulforhodamine B assay; settings: MDA-MB-468, 48 h, read-out: Activity
Malme-3M = assay: Growth inhibition of human MALME-3M cells assessed as cell growth at 5X10'-5 M after 48 hrs by sulforhodamine B assay; settings: read-out: Activity
NCI-H460 [14] = assay: Growth inhibition of human NCI-H460 cells assessed as cell growth at 5X10'-9 M after 48 hrs by sulforhodamine B assay; settings: NCI-H460, 48 h, read-out: Activity
NCI-H522 = assay: Growth inhibition of human NCI-H522 cells assessed as cell growth at 5X10'-5 M after 48 hrs by sulforhodamine B assay; settings: NCI-H522, 48 h, read-out: Activity
HOP-92 [15] = assay: Growth inhibition of human HOP92 cells assessed as cell growth at 5X10'-8 M after 48 hrs by sulforhodamine B assay; settings: HOP-92, 48 h, read-out: Activity
OVCAR-8 = assay: Growth inhibition of human OVCAR8 cells assessed as cell growth at 5X10'-5 M after 48 hrs by sulforhodamine B assay; settings: OVCAR-8, 48 h, read-out: Activity
A498 = assay: Growth inhibition of human A498 cells assessed as cell growth at 5X10'-6 M after 48 hrs by sulforhodamine B assay; settings: A498, 48 h, read-out: Activity
[16] = Growth inhibition of human NCI-ADR-RES cells assessed as cell growth at 5X10'-7 M after 48 hrs by sulforhodamine B assay; settings: read-out: Activity
SN12C [17] = assay: Growth inhibition of human SN12C cells assessed as cell growth at 5X10'-9 M after 48 hrs by sulforhodamine B assay; settings: read-out: Activity
HOP-92 [18] = assay: Growth inhibition of human HOP92 cells assessed as cell growth at 5X10'-7 M after 48 hrs by sulforhodamine B assay; settings: HOP-92, 48 h, read-out: Activity

| Structure (SMILES) | growth at 5 µM (NCI-H460 [1]) [%] | growth at 0.05 µM (OVCAR-5) [%] | growth at 50 µM (T47D) [%] | growth at 0.005 µM (786-0) [%] | growth at 5 µM (MDA-MB-231 [2]) [%] | growth at 50 µM (MDA-MB-231 [3]) [%] | growth at 0.005 µM (UO-31) [%] | growth at 0.5 µM (A549 [4]) [%] | growth at 0.05 µM (A549 [5]) [%] | growth at 0.5 µM (RXF 393) [%] | growth at 0.05 µM (MDA-MB-435) [%] | growth at 0.05 µM (SF-295) [%] | growth at 0.05 µM (MDA-MB-468 [6]) [%] | growth at 0.05 µM (IGROV-1) [%] | growth at 0.005 µM (SK-MEL-28) [%] | growth at 50 µM (RPMI-8226 [7]) [%] | growth at 0.05 µM [8] [%] | growth at 0.5 µM (HCT-15) [%] | growth at 0.5 µM (U-251) [%] | growth at 0.05 µM (SN12C [9]) [%] | also measured |
| --- | --- | --- | --- | --- | --- | --- | --- | --- | --- | --- | --- | --- | --- | --- | --- | --- | --- | --- | --- | --- | --- |
| O=C(Nc1cccc(-n2cc(-c3ccncc3)c(-c3ccc(Cl)c(O)c3)n2)c1)c1ccc(N2CCOCC2)c(C(F)(F)F)c1 | 9 | 97 | 44 | 94 | 8 | -8 | 88 | 92 | 101 | 57 | 93 | 98 | 93 | 95 | 104 | -14 | 98 | 91 | 94 | 98 | growth at 0.5 µM (SW-620 [10]): 106%; growth at 0.5 µM (RPMI-8226 [11]): 83%; growth at 0.05 µM (SW-620 [12]): 104%; growth at 5 µM (PC-3): 29%; growth at 0.005 µM (OVCAR-4): 93%; growth at 5 µM (SK-OV-3): 72%; growth at 5 µM (CCRF-CEM): 26%; growth at 0.005 µM (MDA-MB-468 [13]): 95%; growth at 50 µM (Malme-3M): -40%; growth at 0.005 µM (NCI-H460 [14]): 103%; growth at 50 µM (NCI-H522): -2%; growth at 0.05 µM (HOP-92 [15]): 78%; growth at 50 µM (OVCAR-8): 26%; growth at 5 µM (A498): 92%; growth at 0.5 µM [16]: 96%; growth at 0.005 µM (SN12C [17]): 98%; growth at 0.5 µM (HOP-92 [18]): 53% |
| O=C(Nc1cccc(-n2cc(-c3ccncc3)c(-c3ccc(Cl)c(O)c3)n2)c1)Nc1cc(C(F)(F)F)cc(C(F)(F)F)c1 | -51 | 89 | -25 | 100 | -68 | -72 | 97 | 37 | 94 | 82 | 96 | 90 | 85 | 102 | 101 | 5 | 103 | 49 | 49 | 96 | growth at 0.5 µM (SW-620 [10]): 85%; growth at 0.5 µM (RPMI-8226 [11]): 49%; growth at 0.05 µM (SW-620 [12]): 101%; growth at 5 µM (PC-3): -3%; growth at 0.005 µM (OVCAR-4): 95%; growth at 5 µM (SK-OV-3): -13%; growth at 5 µM (CCRF-CEM): 3%; growth at 0.005 µM (MDA-MB-468 [13]): 94%; growth at 50 µM (Malme-3M): -64%; growth at 0.005 µM (NCI-H460 [14]): 101%; growth at 50 µM (NCI-H522): -82%; growth at 0.05 µM (HOP-92 [15]): 75%; growth at 50 µM (OVCAR-8): -53%; growth at 5 µM (A498): -4%; growth at 0.5 µM [16]: 74%; growth at 0.005 µM (SN12C [17]): 96%; growth at 0.5 µM (HOP-92 [18]): 45% |
| COc1cc(-c2nn(-c3cccc(NC(=O)Nc4cccc(C(F)(F)F)c4)c3)cc2-c2ccncc2)ccc1Cl | -11 | 86 | 1 | 95 | -35 | -56 | 88 | 62 | 97 | 74 | 97 | 91 | 92 | 96 | 100 | -8 | 97 | 66 | 67 | 97 | growth at 0.5 µM (SW-620 [10]): 79%; growth at 0.5 µM (RPMI-8226 [11]): 40%; growth at 0.05 µM (SW-620 [12]): 94%; growth at 5 µM (PC-3): -19%; growth at 0.005 µM (OVCAR-4): 99%; growth at 5 µM (SK-OV-3): 16%; growth at 5 µM (CCRF-CEM): -1%; growth at 0.005 µM (MDA-MB-468 [13]): 93%; growth at 50 µM (Malme-3M): -51%; growth at 0.005 µM (NCI-H460 [14]): 100%; growth at 50 µM (NCI-H522): -41%; growth at 0.05 µM (HOP-92 [15]): 90%; growth at 50 µM (OVCAR-8): -24%; growth at 5 µM (A498): -7%; growth at 0.5 µM [16]: 65%; growth at 0.005 µM (SN12C [17]): 97%; growth at 0.5 µM (HOP-92 [18]): 55% |
